Drawing on patent publication US6569894B1, “Arylalkylbenzofuran derivatives as melatonergic agents” (Bristol-Myers Squibb Company, priority 2001, dated 2003), this text covers IC50 for 27 molecules.

The target in one test is T1, ML1a receptor (Homo sapiens, UniProt P48039).
T1 construct: expressed in transfected cells; pcDNA3)
Kind of test: Melatonergic receptor binding activity, 2-[125I]-iodomelatonin, ML1a. To be noted: membrane homogenates of NIH-3T3 cells, 37° C. for 1 hour. The method, then: (§1) Melatonergic Receptor Binding Activity
(§2) (a) TME=50 mM Tris buffer containing 12.5 mM MgCl2, and 2 mM EDTA, pH 7.4 at 37° C., with concentrated HCl.
(§3) (b) Wash buffer: 20 mM Tris base containing 2 mM MgCl2, pH 7.4 at room temperature.
(§4) (c) 10^−4 M melatonin (10^−5 M final concentration).
(§5) (d) 2-[^125I]-iodomelatonin, […] final concentration.
2. Membrane Homogenates: The melatonin ML1α receptor cDNA was subcloned into pcDNA3 and introduced into NIH-3T3 cells using Lipofectamine. Transformed NIH-3T3 cells resistant to geneticin (G-418) were isolated, and single colonies expressing high levels of 2-[^125I]-iodomelatonin binding were isolated. Cells are maintained in DMEM supplemented with 10% calf serum and G-418 (0.5 g/liter). Cells are grown to confluency in T-175 flasks, scraped using Hank's balanced salt solution, and frozen at −80° C. For preparing membrane homogenates, pellets are thawed on ice, and re-suspended in TME buffer in the presence of 10 μg/ml aprotinin and leupeptin, and 100 μM phenylmethylsulfonylfluoride. The cells were then homogenized using a dounce homogenizer, and centrifuged. The resulting pellet was re-suspended with dounce homogenizer in TME (supplemented with the above protease inhibitors) and frozen. On the day of assay, a small aliquot was thawed on ice and re-suspended in the ice cold TME (1:50-1:100 v/v) and held on ice until assayed.
(§6) 3. Incubation: 37° C. for 1 hour. Reaction is terminated by filtration. Filters were washed 3 times.
(§7) The compounds of the present invention have affinity for receptors of the endogenous pineal hormone, melatonin, as determined in a receptor binding assays described above in Tables I to V for the ML1a and ML1b (human) receptors. Melatonin is involved in the regulation of a variety of biological rhythms and exerts its biological effects via interaction with specific receptors. There is evidence that administration of melatonin agonists are of clinical utility in the treatment of various conditions regulated by melatonin activity. Such conditions include depression, jet-lag, work-shift syndrome, sleep disorders, glaucoma, some disorders associated with reproduction, cancer benign prostatic hyperplasia, immune disorders and neuroendocrine disorders.

The target in another test is T2, ML1b receptor (Homo sapiens, UniProt P49286).
T2 construct: expressed in transfected cells
T2 sequence (P49286 1-362): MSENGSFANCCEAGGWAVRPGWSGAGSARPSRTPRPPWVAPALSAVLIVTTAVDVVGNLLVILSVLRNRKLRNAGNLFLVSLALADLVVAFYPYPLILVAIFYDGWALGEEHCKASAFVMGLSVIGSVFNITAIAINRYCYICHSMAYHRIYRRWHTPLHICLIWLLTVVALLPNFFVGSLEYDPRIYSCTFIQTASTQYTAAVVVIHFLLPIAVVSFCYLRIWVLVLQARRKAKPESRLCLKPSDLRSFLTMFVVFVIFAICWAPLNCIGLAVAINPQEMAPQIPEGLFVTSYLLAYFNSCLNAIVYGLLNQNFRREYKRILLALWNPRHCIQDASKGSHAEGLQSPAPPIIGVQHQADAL
Kind of test: Melatonergic receptor binding activity, 2-[125I]-iodomelatonin, ML1b. To be noted: 37° C. for 1 hour. The method, then: as §1, §2, §3, §4, §5, §6, §7

T1 sequence (P48039 whole entry): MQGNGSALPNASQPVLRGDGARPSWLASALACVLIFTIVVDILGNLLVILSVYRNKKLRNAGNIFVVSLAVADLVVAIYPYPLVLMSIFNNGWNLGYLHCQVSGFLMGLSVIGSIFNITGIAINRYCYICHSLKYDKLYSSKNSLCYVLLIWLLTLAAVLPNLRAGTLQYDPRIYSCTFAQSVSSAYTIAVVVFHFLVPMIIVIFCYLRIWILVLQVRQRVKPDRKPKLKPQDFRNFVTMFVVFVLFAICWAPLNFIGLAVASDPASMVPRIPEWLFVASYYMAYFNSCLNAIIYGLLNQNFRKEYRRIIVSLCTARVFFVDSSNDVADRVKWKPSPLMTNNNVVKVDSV

Regarding “N-3-(2-(2-Phenyleth-1-yl)benzofuran-3-yl)prop-1-yl-cyclopropanecarboxamide [Example 26]”, the half-inhibitory concentration (IC50) at ML1a receptor (Table III) and at ML1b receptor (Table III) was 10 to 250 nM in each case.

For `CCCC(=O)NC[C@H]1C[C@@H]1c1cccc2oc(CCCCc3ccccc3)cc12` (racemic) [Example 32, N-({(1R,2R)-2-[2-(4-Phenylbutyl)benzo[b]furan-4-yl]-cyclopropyl}methyl)butanamide], the IC50 on ML1a receptor (Table IV) and at ML1b receptor (Table IV) was 10 to 250 nM in each case.

`CCC(=O)NCCCc1cccc2c1C[C@H](CCCCc1ccccc1)O2` (stereo in doubt) [Example 2, N-[3-[2-(4-Phenylbutyl)-2,3-dihydrobenzofuran-4-yl]propyl]propionamide]: the IC50 was less than 10 nM at ML1a receptor (Table I) and 10 to 250 nM on ML1b receptor (Table I).

For `CC(C)C(=O)NC[C@@H]1C[C@H]1c1cccc2c1C[C@@H](CCCCc1ccccc1)O2` [Example 45, N-({2-[(2R)-2-(4-Phenylbutyl)(2,3-dihydrobenzo[b]furan-4-yl)]-(1R,2R)cyclopropyl}methyl)-2-methylpropanamide], the IC50 at ML1a receptor (Table V) and on ML1b receptor (Table V) was 10 to 250 nM each time.

With `CCCC(=O)NC[C@@H]1C[C@H]1c1cccc2oc(CCCCc3ccc(F)cc3)cc12` (stereo in doubt) [Example 38, N-[((1R,2R)-2-{2-[4-(4-Fluorophenyl)butyl]benzo[b]furan-4-yl}-cyclopropyl)methyl]butanamide], the IC50 on ML1a receptor (Table IV) and at ML1b receptor (Table IV) was 10 to 250 nM in each case.

As for `CC(C)C(=O)NCCCc1cccc2oc(CCCCc3ccccc3)cc12` [Example 12, N-[3-[2-(4-Phenylbutyl)benzofuran-4-yl]propyl]-2-methyl Propionamide], the figures for the IC50 at ML1a receptor (Table II) and on ML1b receptor (Table II) were less than 10 nM and 10 to 250 nM, respectively.

For the molecule `CC(=O)NC[C@@H]1C[C@H]1c1cccc2oc(CCCCc3ccc(F)cc3)cc12` (stereo in doubt) [Example 36, N-[((1R,2R)-2-{2-[4-(4-Fluorophenyl)butyl]benzo[b]furan-4-yl}-cyclopropyl)methyl]acetamide], the figures for the IC50 at ML1a receptor (Table IV) and on ML1b receptor (Table IV) were less than 10 nM and 10 to 250 nM, respectively.

On to “N-3-(2-(3-Phenylprop-1-yl)benzofuran-3-yl)prop-1-yl Butyramide [Example 21]”, for which the 50% inhibitory concentration (IC50) at ML1a receptor (Table III) was 10 to 250 nM; at ML1b receptor (Table III) it was more than 250 nM.

On to `O=C(NC[C@@H]1C[C@H]1c1cccc2oc(CCCCc3ccc(F)cc3)cc12)C1CC1` (stereo in doubt) [Example 40, N-[((1R,2R)-2-{2-[4-(4-Fluorophenyl)butyl]benzo[b]furan-4-yl}-cyclopropyl)methyl]cyclopropylcarboxamide], for which the IC50 on ML1a receptor (Table IV) and on ML1b receptor (Table IV) was 10 to 250 nM in each case.

For `CCNC(=O)NC[C@@H]1C[C@H]1c1cccc2oc(CCCCc3ccccc3)cc12` (stereo in doubt) [Example 35, N-({(1R,2R)-2-[2-(4-Phenylbutyl)benzo[b]furan-4-yl]-cyclopropyl}methyl)(ethylamino)carboxamide], the IC50 at ML1a receptor (Table IV) and on ML1b receptor (Table IV) was 10 to 250 nM in each case.

For `CC(C)C(=O)NC[C@@H]1C[C@H]1c1cccc2oc(CCCCc3ccc(F)cc3)cc12` (stereo in doubt) [Example 39, N-[((1R,2R)-2-{2-[4-(4-Fluorophenyl)butyl]benzo[b]furan-4-yl}-cyclopropyl)methyl]-2-methylpropanamide], the half-maximal inhibitory concentration (IC50) on ML1a receptor (Table IV) and at ML1b receptor (Table IV) was 10 to 250 nM in each case.

In the case of `CCCC(=O)NC[C@@H]1C[C@H]1c1cccc2c1C[C@@H](CCCCc1ccccc1)O2` [Example 44, N-({2-[(2R)-2-(4-Phenylbutyl)(2,3-dihydrobenzo[b]furan-4-yl)]-(1R,2R)cyclopropyl}methyl)butanamide], the half-maximal inhibitory concentration (IC50) at ML1a receptor (Table V) and at ML1b receptor (Table V) was less than 10 nM each time.

As for `CCNC(=O)NC[C@H]1C[C@@H]1c1cccc2oc(CCCCc3ccc(F)cc3)cc12` [Example 41, N-[((1R,2R)-2-{2-[4-(4-Fluorophenyl)butyl]benzo[b]furan-4-yl-}-cyclopropyl)methyl](ethylamino)carboxamide], the IC50 on ML1a receptor (Table IV) is 10 to 250 nM; on ML1b receptor (Table IV), more than 250 nM.

For the molecule `CC(C)C(=O)NC[C@H]1C[C@@H]1c1cccc2oc(CCCCc3ccccc3)cc12` (racemic) [Example 33, N-({(1R,2R)-2-[2-(4-Phenylbutyl)benzo[b]furan-4-yl]-cyclopropyl}methyl)-2-methylpropanamide], the IC50 at ML1a receptor (Table IV) and at ML1b receptor (Table IV) was 10 to 250 nM throughout.

As for “N-3-(2-(3-Phenylprop-1-yl)benzofuran-3-yl)prop-1-yl Propanamide [Example 20]”, the values for the 50% inhibitory concentration (IC50) at ML1a receptor (Table III) and on ML1b receptor (Table III) were 10 to 250 nM and more than 250 nM, respectively.

As to `CC(=O)NC[C@H]1C[C@@H]1c1cccc2oc(CCCCc3ccccc3)cc12` (racemic) [Example 28, N-({(1R,2R)-2-[2-(4-Phenylbutyl)benzo[b]furan-4-yl]-cyclopropyl}methyl)acetamide], the IC50 is less than 10 nM on ML1a receptor (Table IV) and 10 to 250 nM at ML1b receptor (Table IV).

Regarding “N-{3-[3-Chloro-2-(4-phenylbutyl)benzo[b]furan-4-yl]-propyl}ethoxycarboxamide [Example 27]”, the IC50 at ML1a receptor (Table III) and on ML1b receptor (Table III) was more than 250 nM in each case.

For the molecule `CCC(=O)NC[C@@H]1C[C@H]1c1cccc2oc(CCCCc3ccc(F)cc3)cc12` (stereo in doubt) [Example 37, N-[((1R,2R)-2-{2-[4-(4-Fluorophenyl)butyl]benzo[b]furan-4-yl}-cyclopropyl)methyl]propanamide], the IC50 at ML1a receptor (Table IV) was less than 10 nM; on ML1b receptor (Table IV), 10 to 250 nM.

`CC(=O)NC[C@H]1C[C@@H]1c1cccc2oc(CCCCc3ccccc3)cc12` (single isomer, unassigned) [Example 30]: the values for the IC50 on ML1a receptor (Table IV) and at ML1b receptor (Table IV) were 10 to 250 nM and more than 250 nM, respectively.

Regarding `CCC(=O)NCCCc1cccc2oc(CCCCc3ccc(C(F)(F)F)cc3)cc12` [Example 16, N-[3-[2-[4-(4-Trifluoromethylphenyl)butyl]benzofuran-4-yl]propyl]-propionamide], the IC50 at ML1a receptor (Table III) and on ML1b receptor (Table III) was 10 to 250 nM throughout.

Turning to “N-3-(2-(3-Phenylprop-1-yl)benzofuran-3-yl)prop-1-yl Cyclopropanecarboxamide [Example 22]”, the IC50 was 10 to 250 nM on ML1a receptor (Table III) and more than 250 nM at ML1b receptor (Table III).

Regarding `CCCC(=O)NCCCc1cccc2c1C[C@H](CCCCc1ccccc1)O2` [Example 3, N-[3-[2-(4-Phenylbutyl)-2,3-dihydrobenzofuran-4-yl]propyl]butyramide], the figures for the IC50 at ML1a receptor (Table I) and on ML1b receptor (Table I) were less than 10 nM and 10 to 250 nM, respectively.

Take `CC(=O)NCCCc1cccc2oc(CCCCc3ccccc3)cc12` [Example 9, N-[3-[2-(4-Phenylbutyl)benzofuran-4-yl]propyl]acetamide]: the IC50 on ML1a receptor (Table II) and at ML1b receptor (Table II) was 10 to 250 nM throughout.

For `CCCC(=O)NCCCc1cccc2oc(CCCCc3ccc(C(F)(F)F)cc3)cc12` [Example 17, N-[3-[2-[4-(4-Trifluoromethylphenyl)butyl]benzofuran-4-yl]propyl]-butyramide], the IC50 at ML1a receptor (Table III) and at ML1b receptor (Table III) was 10 to 250 nM throughout.

With `CCNC(=O)NCCCc1cccc2oc(CCCCc3ccc(C(F)(F)F)cc3)cc12` [Example 14, N-[3-[2-[4-(4-Trifluoromethylphenyl)butyl]benzofuran-4-yl]propyl]-N′-ethyl Urea], the IC50 on ML1a receptor (Table III) was 10 to 250 nM; at ML1b receptor (Table III), more than 250 nM.

Consider `CCC(=O)NC[C@@H]1C[C@H]1c1cccc2c1C[C@@H](CCCCc1ccccc1)O2` [Example 43, N-({2-[(2R)-2-(4-Phenylbutyl)(2,3-dihydrobenzo[b]furan-4-yl)]-(1R,2R)cyclopropyl}methyl)propanamide], for which the IC50 at ML1a receptor (Table V) and on ML1b receptor (Table V) was less than 10 nM throughout.

As for “N-({2-[(2R)-5,7-Dichloro-2-(4-phenylbutyl)(2,3-dihydrobenzo[b]furan-4-yl)](1R,2R)cyclopropyl}methyl)butanamide [Example 49]”, the results for the IC50 at ML1a receptor (Table V) and at ML1b receptor (Table V) were more than 250 nM and 10 to 250 nM, respectively.
